What was measured:
Format in all cases: cell-based
[1] = test system: Mycobacterium marinum (ATCC # 927); assay: Mycobacterium marinum growth control, optical absorbance at 660 nm (Example 3); conditions: 72 hours
Experimental: The impact of these N-alkyl alkanolamines on the control of the bacterial species Mycobacterium marinum (ATCC # 927) is given in Table 3. Bacterial concentration in the experimental media was monitored indirectly via optical absorbance at 660 nm. The values reported are end-point optical densities in milliOD units after 72 hours. The media consisted of a standardized solution of clear nutrient broth (Middlebrook 7H 10 with OADC supplement), amine, buffer (Tris) and water. The pH was adjusted initially to 8.5 with Tris buffer. The first column in Table 3 gives the amine concentration in parts per million by weight. In all cases, the values are averages of at least three replicates. The final row of Table 3 gives an estimate of the concentration range in which the amine in question starts to inhibit the growth of this bacterial species (minimum inhibitor concentration MIC).

[2] = test system: Mycobacterium smegmatis (ATCC # 19420); assay: Mycobacterium smegmatis growth control, optical absorbance at 660 nm (Example 2); conditions: 48 hours
Experimental: The impact of these N-alkyl alkanolamines on the control of the bacterial species Mycobacterium smegmatis (ATCC # 19420) is given in the Table 2. Bacterial concentration in the experimental media was monitored indirectly via optical absorbance at 660 nm. The values reported are end-point optical densities in milliOD units after 48 hours. The media consisted of a standardized solution of clear nutrient broth (Middlebrook 7H10 with OADC supplement), amine, buffer (Tris) and water. The pH was adjusted initially to 8.5 with Tris buffer. The first column in the Table gives the amine concentration in parts per million by weight. The final two columns give data for cells that also contained 2 grams per liter of boric acid. In all cases, the values are averages of at least three replicate runs. The final row of Table 2 gives an estimate of the concentration range in which the amine in question starts to inhibit the growth of this bacterial species (minimum inhibitor concentration MIC).

[3] = test system: Mycobacterium smegmatis (ATCC # 19420); assay: Mycobacterium smegmatis growth control, optical absorbance at 590 nm with tetrazolium dye (Example 1); conditions: compared with AMP (2-amino-2-methyl-1-propanol)
[4] = with 2 grams per liter of boric acid

Structure (SMILES)	MIC (minimum inhibitor concentration), estimated concentration range in which the amine starts to inhibit growth [1]	MIC (minimum inhibitor concentration), estimated concentration range in which the amine starts to inhibit growth ([2]; no boric acid)	MIC (minimum inhibitor concentration), estimated concentration range in which the amine starts to inhibit growth [2, 4]	effectiveness against Mycobacteria, in words [3]
C1CCC(NC2CCCCC2)CC1 [DCHA, Dicyclohexylamine, reference compound]	>4000 ppm	1500-2000 ppm	1000-2000 ppm	
CCCCCCCCN(CCO)CCO [ODEA, Octyldiethanolamine]	1200-2000 ppm	500-1000 ppm		
CCCCCCCCNCCO [OAE, octylaminoethanol]	1200-2000 ppm	<500 ppm	<500 ppm	markedly more effective than AMP
CCCCNCCO [BAE, butylaminoethanol]	>4000 ppm			

— patent US20050107270A1, “Alkyl ethanolamines for the control of mycobacteria in functional fluid” (priority 2003, published 2005)
